# Biological target: T1, wild-type K-Ras protein (Homo sapiens, UniProt P01116)
# T1 construct: expressed in transfected cells; host or cells: HeLa cells, transient transfection
# Assay: Degradation (knockdown) of forcibly expressed wild-type K-Ras protein in HeLa cells, Western blot analysis
# Type: cell-based
# Experimental: A plasmid expressing the wild-type K-Ras protein (K-Ras-WT) was prepared, as in Reference Example 1.
# As in Reference Example 1, the plasmid was introduced into HeLa cells to transiently overexpress the wild-type K-Ras protein (specifically, a fusion protein of the wild-type K-Ras protein and GFP through a HA tag) or a DsRed protein for comparison in the cells. HeLa cells into which the plasmid had been introduced were seeded in a 24-well plate at a cell density of 4×10^4 cells/well, and then cultured under conditions of 37° C. and 5 vol % CO2 for 40 hours.
# Culture was performed for 40 hours after introduction of the plasmid, and then TUS-007 was added to HeLa cells as follows. As a medium, a serum-free medium (37° C.) in which 1 mass % L-glutamine solution (Sigma-Aldrich) was added to D-MEM (high D-glucose, phenol red, sodium pyruvate (Wako Pure Chemical Industries, Ltd.)) was used. […]
# After electrophoresis, proteins were transferred to a PVDF membrane (Immobion™-P, Millipore) under conditions of 100 V and 120 minutes using a tank-type blotting device and a transfer buffer (25 mM Tris-HCl, 195 mM glycine, 0.01% SDS, 15% methanol). […] Subsequently, the membrane was treated with a chemiluminescence reagent Immobilon™ Western (Millipore), and then chemiluminescence was detected using a lumino image analyzer LAS-3000 (FUJIFILM Corporation). […]
# T1 sequence (P01116 1-188 isoform P01116-2): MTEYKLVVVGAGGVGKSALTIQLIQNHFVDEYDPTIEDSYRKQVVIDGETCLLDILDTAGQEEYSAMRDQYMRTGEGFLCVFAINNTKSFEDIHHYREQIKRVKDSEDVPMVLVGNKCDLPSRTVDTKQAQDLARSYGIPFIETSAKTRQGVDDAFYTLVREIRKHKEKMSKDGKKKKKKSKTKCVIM
smiles,measurement,setting,value
CC[C@@H](C)[C@H](NC(=O)CCCCCCNC(=O)[C@H](CC(C)C)NC(=O)CNC(=O)c1cc(Cl)ccc1Cl)C(=O)Nc1ccc2[nH]c(Cc3c[nH]c4ccccc34)nc2c1 [TUS-007],amount of wild-type K-Ras protein,"24 hours after addition, relative to control (DMSO)",the amount of the wild-type K-Ras protein was reduced
same,amount of wild-type K-Ras protein when MLN2238 is added together,both TUS-007 and MLN2238 added,the amount of the wild-type K-Ras protein was increased as compared with the amount of the control (DMSO)
